Patent US7879878B2, “Quinolone derivative or salt thereof” (Astellas Pharma Inc., priority 2003, dated 2011)

Key:
[1] = molecular target: T1, human P2Y12 (Homo sapiens, UniProt Q9H244); experiment: Substitution test of the binding between human P2Y12 and 2-methylthio-ADP (2-MeS-ADP); conditions: compound at 30 nM final concentration; [3H]-2-MeS-ADP; membrane fraction of C6-15 cells expressing human P2Y12
T1 construct: expressed in transfected cells; membrane fraction
Procedure: (2) Substitution Test of the Binding Between Human P2Y12 and 2-methylthio-ADP (2-MeS-ADP)
After C6-15 cells were inoculated on a DMEM culture medium to 1×10^6 cells in a 10-cm petri dish for culturing for one day, where 8 μg of a plasmid pEF-BOS-dhfr-human P2Y12 and 0.8 μg of pEF-BOS-neo (Nucleic Acid Res., 18, 5322, 1990) were genetically introduced with a transfection reagent (LipofectAMINE 2000; manufactured by GIBCO BRL).
24 hours after the gene introduction procedure described above, the cells with the gene introduced therein were recovered and suspended in a DMEM culture medium containing 0.6 mg/ml G418 (manufactured by GIBCO BRL), to prepare serial dilutions, which were inoculated on a 10-cm petri dish. Colonies appearing 2 weeks later were individually obtained and defined as C6-15 cell expressing the protein P2Y12, for use in the following experiment (WO 02/36631, Mol. Pharmacol., 60, 432, 2001).
The C6-15 cell expressing the protein P2Y12 was cultured and recovered. […]
1.5 μl of an active ingredient or compound of the invention and 50 μl of 0.75 nM [^3H]-2-MeS-ADP (80 Ci/mmol; manufactured by Amersham Pharmacia Biotech) were added to 100 μl of the P2Y12 protein-expressing C6-15 cell membrane fraction (100 μg/ml) thus prepared, for incubation in 50 mM Tris-HCl, pH 7.4 containing 100 mM NaCl and 50 mM MgCl2, at ambient temperature for one hour. […] Adding a microscintillator onto the glass filter, the radioactivity was assayed with a liquid scintillation counter. At the test, additionally, the radioactivity levels of such cell cultures with no addition of the compound and with addition of 1.5 μl of 100 μM 2-MeS-ADP were assayed as total binding and non-specific binding, respectively. Defining the total binding and the non-specific binding at inhibition ratios of 0% and 100%, respectively, the inhibition ratio (%) of an active ingredient or compound in accordance with the invention was calculated.

[2] = test system: Human platelet aggregation; experiment: Test for assaying human platelet aggregation-inhibiting activity (ADP-induced aggregation in platelet-enriched plasma); format: cell-based; conditions: compound at 10 μM final concentration; human PRP; aggregation induced by ADP; area-under-the curve of platelet aggregation as indicator; read-out: % inhibition (Human platelet aggregation-inhibiting action)
Procedure: (1) Test for Assaying Human Platelet Aggregation-Inhibiting Activity
Blood was withdrawn from healthy human volunteers (adult males), in the presence of a 1/10th volume of sodium citrate, and centrifuged to obtain supernatant platelet-enriched plasma (PRP). The platelet count in PRP was determined with an automatic blood cell counter (MEK-6258; manufactured by NIHON KOHDEN CORPORATION). Then, the platelet count in PRP was adjusted to 3×10^8/ml with platelet-poor plasma. ADP as a platelet aggregation-inducing agent was a product of MCMEDICAL, Inc. Platelet aggregation was measured using an aggregometer (MCM Hematracer 212; MCMEDICAL, Inc.). Specifically, 80 μl of PRP and 10 μl of a solution of an active ingredient or compound of the invention or a solvent (10% DMSO) were incubated together at 37° C. for one minute, to which 10 μl of ADP (50 μM) was added to induce platelet aggregation. Then, the change of the transmitting light was recorded over 5 minutes. Using the area-under-the curve of platelet aggregation as an indicator, the inhibition ratio was calculated.

T1 sequence (Q9H244 whole entry): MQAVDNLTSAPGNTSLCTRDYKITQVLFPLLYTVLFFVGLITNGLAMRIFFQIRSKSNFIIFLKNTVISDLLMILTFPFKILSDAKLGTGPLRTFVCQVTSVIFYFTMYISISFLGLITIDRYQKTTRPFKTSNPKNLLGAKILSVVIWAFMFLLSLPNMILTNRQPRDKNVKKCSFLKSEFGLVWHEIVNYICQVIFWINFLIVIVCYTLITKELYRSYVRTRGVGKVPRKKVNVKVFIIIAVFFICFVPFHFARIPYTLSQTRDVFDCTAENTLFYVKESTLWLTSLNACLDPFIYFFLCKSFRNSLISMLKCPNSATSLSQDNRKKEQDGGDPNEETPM

SMILES	% inhibition (Inhibition activity of the binding between P2Y12 and 2-MeS-ADP) [1] [%]	inhibition at 10 µM [2] [%]	inhibition at 0.03 µM [1] [%]
CCOP(=O)(O)CCNC(=O)c1cn(C(CO)CO)c2cc(NC3CCCCC3)c(F)cc2c1=O [Example 22, ethyl{2-[({7-(cyclohexylamino)-6-fluoro-4-oxo-1-[2-hydroxy-1-(hydroxymethyl)ethyl]-4-oxo-1,4-dihydroquinolin-3-yl}carbonyl)amino]ethyl}phosphonic acid]	75	–	–
CC1(C)OCC(n2cc(C(=O)NCCP(=O)(O)O)c(=O)c3cc(F)c(NC4CCCCC4)cc32)CO1 [Example 18, [2-({[7-(cyclohexylamino)-1-(2,2-dimethyl-1,3-dioxan-5-yl)-6-fluoro-4-oxo-1,4-dihydroquinolin-3-yl]carbonyl}amino)ethyl]phosphonic acid]	–	92	96
CCC(CC)n1cc(C(=O)NC(C)(C)C(=O)O)c(=O)c2cc(F)c(NC3CCCCC3)cc21 [Example 28, 2-({[7-(cyclohexylamino)-1-(1-ethylpropyl)-6-fluoro-4-oxo-1,4-dihydroquinolin-3-yl]carbonyl}amino)-2-methylpropionic acid]	–	–	63
